Reference: ChEMBL document CHEMBL3351679, “Radioiodinated benzyloxybenzene derivatives: a class of flexible ligands target to β-amyloid plaques in Alzheimer's brains” (J Med Chem, 2014)
Blank lines part the entries; values can stand above or below the molecule they belong to.

Experiments:
Brain [1] = experiment: Biodistribution in ICR mouse brain at 250 uCi, iv measured at 60 mins post dose; format: ADME, organism-based; conditions: in vivo, 1 h
Brain [2] = experiment: Biodistribution in ICR mouse brain at 250 uCi, iv measured at 2 mins post dose; format: ADME, organism-based; conditions: in vivo
[3] = Partition coefficient, log D of the compound; format: physicochemical; conditions: octanol/water
[4] = target: T1, Amyloid-beta precursor protein (Homo sapiens, UniProt P05067); experiment: Displacement of [125I]1-Iodo-4-((4-methoxyphenoxy)methyl)benzene from amyloid beta42 (unknown origin) after 3 hrs by gamma counting
T1 sequence (P05067 whole entry): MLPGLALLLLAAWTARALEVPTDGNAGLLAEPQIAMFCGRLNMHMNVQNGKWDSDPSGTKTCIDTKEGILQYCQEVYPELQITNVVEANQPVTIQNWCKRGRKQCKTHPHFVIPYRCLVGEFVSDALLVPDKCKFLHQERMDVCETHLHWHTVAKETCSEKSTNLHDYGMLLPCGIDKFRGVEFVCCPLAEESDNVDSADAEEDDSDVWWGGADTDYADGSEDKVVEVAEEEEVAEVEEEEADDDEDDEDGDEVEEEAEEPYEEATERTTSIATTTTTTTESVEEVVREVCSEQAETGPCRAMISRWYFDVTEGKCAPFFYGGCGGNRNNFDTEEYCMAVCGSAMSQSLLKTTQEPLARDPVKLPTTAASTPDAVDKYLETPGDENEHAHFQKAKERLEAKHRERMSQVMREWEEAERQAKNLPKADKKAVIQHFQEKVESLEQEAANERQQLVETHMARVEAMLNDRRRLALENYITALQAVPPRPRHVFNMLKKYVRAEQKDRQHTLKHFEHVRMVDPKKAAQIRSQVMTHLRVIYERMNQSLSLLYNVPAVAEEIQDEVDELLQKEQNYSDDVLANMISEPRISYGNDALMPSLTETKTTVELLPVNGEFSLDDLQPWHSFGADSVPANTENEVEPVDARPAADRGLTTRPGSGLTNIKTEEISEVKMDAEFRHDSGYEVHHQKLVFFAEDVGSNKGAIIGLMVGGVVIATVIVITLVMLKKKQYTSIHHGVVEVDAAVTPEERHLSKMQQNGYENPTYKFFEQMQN

Brain [5] = experiment: In vivo biostability in ICR mouse brain assessed as radioactivity at 250 uCi, iv measured at 60 mins post dose; format: ADME, organism-based; conditions: 1 h
Blood [6] = experiment: In vivo biostability in ICR mouse blood assessed as radioactivity at 250 uCi, iv measured at 10 mins post dose; format: ADME, organism-based
Liver [7] = experiment: In vivo biostability in ICR mouse liver assessed as radioactivity at 250 uCi, iv measured at 60 mins post dose; format: ADME, organism-based; conditions: 1 h
[8] = In vivo biostability in ICR mouse urine assessed as radioactivity at 250 uCi, iv measured at 60 mins post dose; format: ADME, organism-based; conditions: 1 h
Brain [9] = experiment: Ratio of drug uptake in ICR mouse brain at 250 uCi, iv measured at 2 mins post dose to drug uptake in ICR mouse brain at 250 uCi, iv measured at 60 mins post dose; format: ADME, organism-based; conditions: in vivo
Plasma = experiment: Biostability in mouse plasma assessed as radioactivity at 30 uCi at 37 degC measured at 60 mins by HPLC; format: ADME, cell-free; conditions: 1 h
[10] = In vivo biostability in ICR mouse feces assessed as radioactivity at 250 uCi, iv measured at 60 mins post dose; format: ADME, organism-based; conditions: 1 h
[11] = In vivo biostability in ICR mouse feces assessed as radioactivity at 250 uCi, iv measured at 30 mins post dose; format: ADME, organism-based; conditions: 0.5 h
Liver [12] = experiment: In vivo biostability in ICR mouse liver assessed as radioactivity at 250 uCi, iv measured at 2 mins post dose; format: ADME, organism-based
Liver [13] = experiment: Biostability in mouse liver homogenate assessed as radioactivity at 30 uCi at 37 degC measured at 60 mins by HPLC; format: ADME, tissue-based; conditions: tissue homogenate, 1 h
[14] = In vivo biostability in ICR mouse urine assessed as radioactivity at 250 uCi, iv measured at 10 mins post dose; format: ADME, organism-based
[15] = In vivo biostability in ICR mouse urine assessed as radioactivity at 250 uCi, iv measured at 30 mins post dose; format: ADME, organism-based; conditions: 0.5 h
Liver [16] = experiment: In vivo biostability in ICR mouse liver assessed as radioactivity at 250 uCi, iv measured at 10 mins post dose; format: ADME, organism-based
Brain [17] = experiment: In vivo biostability in ICR mouse brain assessed as radioactivity at 250 uCi, iv measured at 30 mins post dose; format: ADME, organism-based; conditions: 0.5 h
Brain [18] = experiment: In vivo biostability in ICR mouse brain assessed as radioactivity at 250 uCi, iv measured at 2 mins post dose; format: ADME, organism-based
Blood [19] = experiment: In vivo biostability in ICR mouse blood assessed as radioactivity at 250 uCi, iv measured at 60 mins post dose; format: ADME, organism-based; conditions: 1 h
[20] = target: T1, Amyloid-beta precursor protein; experiment: Binding affinity to amyloid beta42 (unknown origin) after 3 hrs by gamma counting
Blood [21] = experiment: In vivo biostability in ICR mouse blood assessed as radioactivity at 250 uCi, iv measured at 30 mins post dose; format: ADME, organism-based; conditions: 0.5 h
Brain [22] = experiment: In vivo biostability in ICR mouse brain assessed as radioactivity at 250 uCi, iv measured at 10 mins post dose; format: ADME, organism-based
Blood [23] = experiment: In vivo biostability in ICR mouse blood assessed as radioactivity at 250 uCi, iv measured at 2 mins post dose; format: ADME, organism-based
Liver [24] = experiment: In vivo biostability in ICR mouse liver assessed as radioactivity at 250 uCi, iv measured at 30 mins post dose; format: ADME, organism-based; conditions: 0.5 h

Structure (SMILES): CN(C)c1ccc(OCc2ccc([125I])cc2)cc1
Drug uptake (Brain [1]): < 0.5 % ID/g | Drug uptake (Brain [2]): > 4 % ID/g | logD [3]: 2.89

Structure (SMILES): COc1ccc(OCc2ccc(I)cc2)cc1
Ki ([4]; read-out: Ki): 24.3 nM | Ki ([4]; read-out: pKi (converted)): 24.5 nM

Structure (SMILES): Nc1ccc(OCc2ccc(I)cc2)cc1
Ki ([4]; read-out: Ki): 409 nM | Ki ([4]; read-out: pKi (converted)): 407 nM

Structure (SMILES): Ic1ccc(COc2ccccc2)cc1
Ki ([4]; read-out: Ki): 79.4 nM | Ki ([4]; read-out: pKi (converted)): 79.4 nM

Structure (SMILES): Nc1cccc(OCc2ccc(I)cc2)c1
Ki ([4]; read-out: Ki): 1530 nM | Ki ([4]; read-out: pKi (converted)): 1550 nM

Structure (SMILES): CC(C)(C)c1ccc(OCc2ccc(I)cc2)cc1
Ki ([4]; read-out: Ki): 118 nM | Ki ([4]; read-out: pKi (converted)): 117 nM

Structure (SMILES): Fc1ccc(OCc2ccc(I)cc2)cc1
Ki ([4]; read-out: Ki): 107 nM | Ki ([4]; read-out: pKi (converted)): 107 nM

Structure (SMILES): COc1ccc(COc2ccc(I)cc2)cc1
Ki ([4]; read-out: Ki): 49.4 nM | Ki ([4]; read-out: pKi (converted)): 49 nM

Structure (SMILES): CNc1cccc(OCc2ccc(I)cc2)c1
Ki ([4]; read-out: Ki): 594 nM | Ki ([4]; read-out: pKi (converted)): 589 nM

Structure (SMILES): Nc1ccccc1OCc1ccc(I)cc1
Ki ([4]; read-out: Ki): 1030 nM | Ki ([4]; read-out: pKi (converted)): 1020 nM

Structure (SMILES): Oc1cccc(OCc2ccc(I)cc2)c1
Ki ([4]; read-out: Ki): 386 nM | Ki ([4]; read-out: pKi (converted)): 389 nM

The remaining lines, values ahead:

Drug uptake (Brain [1]): < 0.5 % ID/g | Drug uptake (Brain [2]): > 4 % ID/g | logD [3]: 4.16
Structure (SMILES): COc1ccc(COc2ccc([125I])cc2)cc1

Ki ([4]; read-out: Ki): 20700 nM | Ki ([4]; read-out: pKi (converted)): 20900 nM
Structure (SMILES): CNc1ccccc1OCc1ccc(I)cc1

Ki ([4]; read-out: Ki): 18.8 nM | Ki ([4]; read-out: pKi (converted)): 18.6 nM
Structure (SMILES): Clc1ccc(OCc2ccc(I)cc2)cc1

Ki ([4]; read-out: Ki): 894 nM | Ki ([4]; read-out: pKi (converted)): 891 nM
Structure (SMILES): CN(C)c1cccc(OCc2ccc(I)cc2)c1

Ki ([4]; read-out: Ki): 21.9 nM | Ki ([4]; read-out: pKi (converted)): 21.9 nM
Structure (SMILES): Ic1ccc(COc2ccc(I)cc2)cc1

Ki ([4]; read-out: Ki): 2830 nM | Ki ([4]; read-out: pKi (converted)): 2820 nM
Structure (SMILES): Oc1ccccc1OCc1ccc(I)cc1

Ki ([4]; read-out: Ki): 17.6 nM | Ki ([4]; read-out: pKi (converted)): 17.8 nM
Structure (SMILES): CN(C)c1ccc(OCc2ccc(I)cc2)cc1

Ki ([4]; read-out: Ki): 5160 nM | Ki ([4]; read-out: pKi (converted)): 5130 nM
Structure (SMILES): COc1ccccc1OCc1ccc(I)cc1

Stability (Brain [5]): 38.9% | Stability (Blood [6]): 49.7% | Drug uptake (Brain [1]): < 0.5 % ID/g | Stability (Liver [7]): 1.9% | Stability [8]: 1.3% | Ratio (Brain [9]): 16.3 | Stability (Plasma): 100% | Stability [10]: 40.6% | Stability [11]: 49.9% | Stability (Liver [12]): 42.4% | Stability (Liver [13]): 100% | Stability [14]: 8.4% | Stability [15]: 2.4% | Stability (Liver [16]): 31.9% | Stability (Brain [17]): 46.6% | Stability (Brain [18]): 95% | Stability (Blood [19]): 10.6% | Drug uptake (Brain [2]): 6.18 % ID/g | Kd [20]: 0.56 nM | Stability (Blood [21]): 18.2% | logD [3]: 4 | Stability (Brain [22]): 82% | Stability (Blood [23]): 71.5% | Stability (Liver [24]): 2.5%
Structure (SMILES): COc1ccc(OCc2ccc([125I])cc2)cc1

Ki ([4]; read-out: Ki): 48.2 nM | Ki ([4]; read-out: pKi (converted)): 47.9 nM
Structure (SMILES): CNc1ccc(OCc2ccc(I)cc2)cc1

Ki ([4]; read-out: Ki): 12 nM | Ki ([4]; read-out: pKi (converted)): 12 nM
Structure (SMILES): Brc1ccc(OCc2ccc(I)cc2)cc1

Ki ([4]; read-out: Ki): 131 nM | Ki ([4]; read-out: pKi (converted)): 132 nM
Structure (SMILES): COc1cccc(OCc2ccc(I)cc2)c1

Ki ([4]; read-out: Ki): 530 nM | Ki ([4]; read-out: pKi (converted)): 525 nM
Structure (SMILES): COc1ccc(SCc2ccc(I)cc2)cc1

Ki ([4]; read-out: Ki): 113 nM | Ki ([4]; read-out: pKi (converted)): 112 nM
Structure (SMILES): Oc1ccc(OCc2ccc(I)cc2)cc1
